Reference: the supplement of paper PMC10307832

What was measured:
Experiment in all cases: relative viability (nuclei count vs DMSO), 5 days (fraction); higher = more cells survive
[1] = compound: O=C(C[C@H]1NCCC[C@@H]1O)Cn1cnc2cc(Br)c(Cl)cc2c1=O (racemic) [Halofuginone] + CC(=O)Nc1cccc(-n2c(=O)n(C3CC3)c(=O)c3c(Nc4ccc(I)cc4F)n(C)c(=O)c(C)c32)c1 [Trametinib] (partner 0.02 µM)
Procedure, shortened: (§1)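 Nuclei were stained with Hoechst during a one-step fixation (final 0.05% Triton X-100, 1% formaldehyde, 1 ug/ml Hoechst) carried out 5 days after dosing, then counted on 4× images. The cells, lung cancer lines in 1536-well plates, had been dosed by pin tool the day after seeding with one drug alone or a fixed anchor-drug dose plus five library-drug doses (not always all listed) in √10 steps. Relative viability is the nuclei count in treated wells divided by that in vehicle wells, and each value is the median of duplicate plates.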

Halofuginone + Olaparib = compound: O=C(C[C@H]1NCCC[C@@H]1O)Cn1cnc2cc(Br)c(Cl)cc2c1=O (racemic) [Halofuginone] + O=C(c1cc(Cc2n[nH]c(=O)c3ccccc23)ccc1F)N1CCN(C(=O)C2CC2)CC1 [Olaparib] (partner 8 µM)
Procedure, shortened: as §1

Halofuginone + Dasatinib = compound: O=C(C[C@H]1NCCC[C@@H]1O)Cn1cnc2cc(Br)c(Cl)cc2c1=O (racemic) [Halofuginone] + Cc1nc(Nc2ncc(C(=O)Nc3c(C)cccc3Cl)s2)cc(N2CCN(CCO)CC2)n1 [Dasatinib] (partner 0.075 µM)
Procedure, shortened: as §1

Decitabine + Vorinostat = compound: Nc1ncn([C@H]2C[C@H](O)[C@@H](CO)O2)c(=O)n1 [Decitabine] + O=C(CCCCCCC(=O)Nc1ccccc1)NO [Vorinostat] (partner 1 µM)
Procedure, shortened: as §1

Cell Line	relative viability ([1]; first compound 0.001 µM)	relative viability ([1]; first compound 0.003162 µM)	relative viability ([1]; first compound 0.01 µM)	relative viability ([1]; first compound 0.03162 µM)	relative viability ([1]; first compound 0.1 µM)	relative viability (Halofuginone + Olaparib; first compound 0.001 µM)	relative viability (Halofuginone + Olaparib; first compound 0.003162 µM)	relative viability (Halofuginone + Olaparib; first compound 0.01 µM)	relative viability (Halofuginone + Olaparib; first compound 0.03162 µM)	relative viability (Halofuginone + Olaparib; first compound 0.1 µM)	relative viability (Halofuginone + Dasatinib; first compound 0.001 µM)	relative viability (Halofuginone + Dasatinib; first compound 0.003162 µM)	relative viability (Halofuginone + Dasatinib; first compound 0.01 µM)	relative viability (Halofuginone + Dasatinib; first compound 0.03162 µM)	relative viability (Halofuginone + Dasatinib; first compound 0.1 µM)	relative viability (Decitabine + Vorinostat; first compound 0.1265 µM)	relative viability (Decitabine + Vorinostat; first compound 0.4 µM)	relative viability (Decitabine + Vorinostat; first compound 1.265 µM)	relative viability (Decitabine + Vorinostat; first compound 4 µM)	relative viability (Decitabine + Vorinostat; first compound 0.04 µM)
PC-3 [JPC-3]	0.722	0.741	0.664	0.648	0.538	1.19	1.12	1.15	1.15	0.948	0.933	0.966	0.955	1.02	1.03	0.554	0.507	0.454	0.567	–
HCC-44	1.04	1.1	1.05	1.13	0.966	0.97	1.03	0.987	0.962	0.942	–	–	–	–	–	0.982	0.839	0.904	0.785	1.06
NCI-H2405	0.696	0.69	0.678	0.599	0.502	0.934	0.864	0.826	0.795	0.66	0.21	0.246	0.241	0.209	0.223	0.878	0.894	0.561	0.395	0.765
LXF-289	0.688	0.717	0.66	0.707	0.676	1.02	1.03	1.06	1.07	0.815	0.318	0.266	0.267	0.222	0.198	0.354	0.293	0.243	0.266	0.462
LOU-NH91	0.819	0.817	0.724	0.778	0.697	0.958	0.93	0.853	0.925	0.81	0.632	0.578	0.555	0.582	0.498	0.958	0.848	0.805	0.849	0.768
A549	–	–	–	–	–	0.48	0.413	0.378	0.288	0.262	–	–	–	–	–	–	–	–	–	–
H3255	0.746	0.73	0.543	0.716	0.517	0.622	0.563	0.522	0.514	0.544	0.429	0.317	0.357	0.328	0.334	0.846	0.638	0.487	0.76	–
NCI-H1395	0.95	1.03	0.912	0.889	0.746	0.462	0.469	0.471	0.433	0.388	0.425	0.469	0.426	0.364	0.366	0.634	0.605	0.429	0.524	0.548
LC-2-ad	0.897	0.988	0.936	0.917	0.701	0.675	0.697	0.692	0.678	0.669	0.711	0.517	0.511	0.565	0.209	0.635	0.608	0.365	0.406	0.642
NCI-H838	0.504	0.518	0.468	0.38	0.191	0.817	0.784	0.734	0.527	0.107	0.312	0.307	0.339	0.228	0.17	0.595	0.641	0.383	0.34	0.701
Calu-6	–	–	–	–	–	0.611	–	0.584	0.327	0.135	–	–	–	–	–	–	–	–	–	–
NCI-H1648	0.46	0.449	0.582	0.495	0.497	1.25	1.15	1.21	0.979	0.936	–	–	–	–	–	0.386	0.305	0.249	0.315	0.384
LCLC-97TM1	0.241	0.192	0.187	0.185	0.173	0.445	0.314	0.392	0.387	0.233	0.78	0.902	0.775	0.826	0.775	0.159	0.107	0.0989	0.0784	0.273
ABC-1	–	–	–	–	–	1.06	0.793	0.617	0.847	1.09	0.586	0.626	0.453	0.476	0.487	0.842	0.964	0.888	0.795	–
NCI-H1703	–	–	–	–	–	0.495	0.483	0.482	0.289	0.2	–	–	–	–	–	–	–	–	–	–
NCI-H1563	–	–	–	–	–	–	–	–	–	–	0.477	0.432	0.418	0.487	0.408	–	–	–	–	–
NCI-H1792	0.402	0.469	0.51	0.522	0.18	0.529	0.424	0.355	0.42	0.0661	0.973	0.791	0.844	0.76	0.607	–	–	–	–	–
NCI-H1623	–	–	–	–	–	–	–	–	–	–	0.588	0.43	0.523	0.468	0.394	–	–	–	–	–
IA-LM	–	–	–	–	–	0.848	0.913	0.768	0.656	0.305	–	–	–	–	–	0.403	0.393	0.236	0.164	0.853
EBC-1	–	–	–	–	–	0.752	0.706	0.532	0.303	0.169	–	–	–	–	–	–	–	–	–	–
NCI-H1299	–	–	–	–	–	1	1.05	0.929	0.851	0.418	–	–	–	–	–	–	–	–	–	–
